A value given as a limit tells only on which side of the number the result lay.

One assay deals with GABAA receptors. Briefly: Electrophysiology assay (two-electrode voltage clamp, Xenopus oocytes expressing GABAA receptors). As to conditions: positive (Pos) or negative (Neg) modulation of current at GABA EC20, screening concentration of 10 μM. It counts as cell-based. As for the experimental part: The modulation of GABAA function is determined by changes in current as determined in an electrophysiology assay, as is detailed below.
mRNA was prepared from lyophilized plasmid pellets containing cDNA inserts encoding the specific GABAA receptor subunit. cDNAs encoding the α2, α3, and γ3 subunits were subcloned into pBluescript, SK^−. cDNAs encoding the a 1 and a 5 subunits were subcloned into prC while cDNA encoding the β2 subunit was subcloned into pcDNA1. The cDNA construct encoding the g 2s subunit is in the pGH19 expression construct. Overnight cultures of transformed DH5a bacterial cells were performed to grow sufficient quantities for maxiprep isolation of the plasmid cDNA. The resulting plasmid cDNA was linearized by digestion with an appropriate restriction enzyme that cleaves distal to the cDNA insert [XbaI (α1, β2), NotI (α3, γ2 s), SacII (α2), or ApaI (α5)]. Following digestion, plasmid cDNA was treated with proteinase K and extracted with phenol/chloroform/isoamyl alcohol, followed by ethanol precipitation. cDNA quality was assessed by agarose-gel electrophoresis (1.5% agarose gel). Samples were stored at −20° C. until use. In vitro transcription was performed with T7 RNA polymerase. mRNA was then stored at −80° C. until use. Plasmids were linearized with appropriate restriction enzymes before in vitro transcription using the Message Machine kit (Ambion, Austin, Tex.).
GABAA receptor expression in Xenopus oocytes: Following 45 min of 0.15% Tricaine anesthesia, an ovarian section containing the follicular oocytes was removed from the frog through a lateral abdominal incision. Oocytes were immediately placed in a calcium-free solution (NaCl 96 mM, MgCl2 1 mM, KCl 2 mM, Hepes 50 mM, pyruvate 2.5 mM, gentamycin 100 μg/mL, penicillin-streptomycin 50 U/mL, pH 7.4). Following 1.5-2 hour incubation in 0.2% collagenase (type II, Sigma Chemical Co., St. Louis, Mo.) at room temperature, individual Dumont stage V and VI oocytes were transferred to an incubator and maintained overnight in Barth's solution (NaCl 84 mM, NaHCO3 2.4 mM, MgSO4 0.82 mM, KCl 1 mM, Ca(NO3)2 0.33 mM, CaCl2 0.41 mM, Tris/HCl 7.5 mM, pyruvate 2.5 mM, gentamycin 50 μg/mL, penicillin-streptomycin, 100 units/mL, pH 7.4) at 18-20° C. and used for experiments 1-5 days post-injection. Oocytes were injected solution using an electronic microinjector (Drummond, Broomall, Pa.) with 50 nL of RNA containing 0.3-0.5 ng of each subunit RNA in a 1:1:2 ratio. The injected oocytes were used for experiments after 1-5 days of incubation in Barth's solution at 18-20° C.
Measurements of ion currents from oocytes expressing GABAA receptors were performed using a Warner two-electrode voltage-clamp amplifier (Warner Instruments, Inc., Foster City, Calif.) (Park-Chung, M. A., et al. (1999) Brain Res. 830: 72-87 incorporated herein in its entirety). Microelectrodes were fabricated from borosilicate glass capillaries with a programmed pipette puller (Sutter Instrument Co., CA). Microelectrode resistance was 1-3 MΩ when filled with 3 M KCl. The oocyte recording chamber was continuously perfused with ND-96 solution. Oocytes were clamped at a holding potential of −70 mV during data acquisition. The membrane current was filtered at 10 Hz and sampled at 100 Hz. Compounds were applied by a gravity-driven external perfusion system. The working volume of the recording chamber was […] and the rate of the perfusion was approximately […]. Compound application was 20-25 sec followed by a minimum of 150 sec wash. Data acquisition and external perfusion was computer controlled by custom-developed software. All experiments were performed at room temperature (22-24° C.). Dose-response data from each oocyte were fitted to the Hill equation by non-linear regression using the equation: IGABA=Emax/(1+(EC50/c)nH)
Emax is the maximum response, EC50 is the concentration producing 50% of the maximal response, nH is the Hill coefficient and c is the concentration of agonist. […]
In the case of `COc1ccc(-n2nc3c4cc(F)c(N5CCN(C)CC5)c(F)c4[nH]cc-3c2=O)cc1` [44d, 6,8-Difluoro-2-(4-methoxyphenyl)-7-(4-methylpiperazin-1-yl)-2,5-dihydro-pyrazolo[4,3-c]quinolin-3-one], the “EP Result” value is “Pos”.
The same measure, in the same setting: then `O=c1c2c[nH]c3cc(N4CCOCC4)c(F)cc3c-2nn1-c1ccccc1` [28b, 8-Fluoro-7-morpholin-4-yl-2-phenyl-2,5-dihydro-pyrazolo[4,3-c]quinolin-3-one], with “Pos”; and `CC(C)N1CCN(c2cc(N3CCN(C(C)C)CC3)c3[nH]cc4c(=O)n(-c5ccccc5)nc-4c3c2)CC1` [58b, 6,8-Bis(4-iso-propylpiperazin-1-yl)-2-phenyl-2,5-dihydro-pyrazolo[4,3-c]quinolin-3-one], with “Neg”.
On the same count and under the same terms, then `O=c1c2c[nH]c3c(N4CCOCC4)cc(N4CCOCC4)cc3c-2nn1-c1ccccc1` [58a, 6,8-Bis(morpholin-4-yl)-2-phenyl-2,5-dihydro-pyrazolo[4,3-c]quinolin-3-one], with “Neg”.

The target of a further assay is GABAA central benzodiazepine receptor. Briefly: Benzodiazepine binding assay ((3H)-flunitrazepam displacement). As to conditions: read-out: BZ binding assay (IC50); rat whole brain (except cerebellum), 1 nM (3H)-flunitrazepam, 60 minutes at 25° C.; 3-concentration dose response curve.
In the case of `COc1ccc(-n2nc3c4cc(F)c(N5CCN(C)CC5)c(F)c4[nH]cc-3c2=O)cc1` [44d, 6,8-Difluoro-2-(4-methoxyphenyl)-7-(4-methylpiperazin-1-yl)-2,5-dihydro-pyrazolo[4,3-c]quinolin-3-one], the IC50 (in general, the concentration needed to halve the response being measured) was < 1 µM.
Still for that read-out and setting: then `O=c1c2c[nH]c3cc(N4CCOCC4)c(F)cc3c-2nn1-c1ccccc1` [28b, 8-Fluoro-7-morpholin-4-yl-2-phenyl-2,5-dihydro-pyrazolo[4,3-c]quinolin-3-one], with < 1 µM; and `CN1CCN(c2cc(C(F)(F)F)cc3c4nn(-c5ccccc5)c(=O)c-4c[nH]c23)CC1` [52b, 2-Phenyl-6-(4-methylpiperazin-1-yl)-8-trifluoromethyl-2,5-dihydro-pyrazolo[4,3-c]quinolin-3-one], with < 1 µM; and `CN1CCN(c2cc3[nH]cc4c(=O)n(-c5ccccc5F)nc-4c3cc2F)CC1` [28o, 8-fluoro-2-(2-fluorophenyl)-7-(4-methylpiperazin-1-yl)-2,5-dihydro-pyrazolo[4,3-c]quinolin-3-one], with < 1 µM.
Same read-out and setting: then `CN1CCN(c2cc3[nH]cc4c(=O)n(-c5ccsc5)nc-4c3cc2F)CC1` [28q, 8-fluoro-7-(4-methylpiperazin-1-yl)-2-(thiophen-3-yl)-2,5-dihydro-pyrazolo[4,3-c]quinolin-3-one], with > 1 µM; and “2-Phenyl-6-(4-iso-propylpiperazin-1-yl)-8-trifluoromethyl-2,5-dihydro-pyrazolo[4,3-c]quinolin-3-one [52d]”, with < 1 µM; and `O=c1c2c[nH]c3cc(N4CCCNCC4)c(F)cc3c-2nn1-c1ccccc1` [28l, 8-Fluoro-7-(perhydro[1,4]-diazepin-1-yl)-2-phenyl-2,5-dihydro-pyrazolo[4,3-c]quinolin-3-one], with < 1 µM.
Same read-out and setting: to `O=c1c2c[nH]c3c(F)c(N4CCOCC4)ccc3c-2nn1-c1ccccc1` [48c, 6-Fluoro-7-(morpholin-4-yl)-2-phenyl-2,5-dihydro-pyrazolo[4,3-c]quinolin-3-one] belongs < 1 µM; to `O=c1c2c[nH]c3c(N4CCNCC4)cc(C(F)(F)F)cc3c-2nn1-c1ccccc1` [52a, 2-Phenyl-6-piperazin-1-yl-8-trifluoromethyl-2,5-dihydro-pyrazolo[4,3-c]quinolin-3-one], < 1 µM; to `O=c1c2c[nH]c3cc(N4CCOCC4)c(F)cc3c-2nn1-c1ccsc1` [28r, 8-fluoro-7-(morpholin-4-yl)-2-(thiophen-3-yl)-2,5-dihydro-pyrazolo[4,3-c]quinolin-3-one], < 1 µM.
Take `O=c1c2c[nH]c3c(N4CCCNCC4)cc(C(F)(F)F)cc3c-2nn1-c1ccccc1` [52c, 2-Phenyl-6-(perhydro[1,4]-diazepine-1-yl)-8-trifluoromethyl-2,5-dihydro-pyrazolo[4,3-c]quinolin-3-one]: the IC50 was < 1 µM.
The same measure, in the same setting: to `CN1CCCN(c2cc3[nH]cc4c(=O)n(-c5ccccc5)nc-4c3cc2F)CC1` [28m, 8-Fluoro-7-(4-methylperhydro[1,4]-diazepin-1-yl)-2-phenyl-2,5-dihydro-pyrazolo[4,3-c]quinolin-3-one] belongs < 1 µM; to `CN1CCN(c2ccc3c4nn(-c5ccccc5)c(=O)c-4c[nH]c3c2F)CC1` [48b, 6-Fluoro-7-(4-methyl-piperazin-1-yl)-2-phenyl-2,5-dihydro-pyrazolo [4,3-c]quinolin-3-one], > 1 µM; to `CN(C)C1CCN(c2cc3[nH]cc4c(=O)n(-c5ccccc5)nc-4c3cc2F)CC1` [28i, 7-(4-Dimethylaminopiperidin-1-yl)-8-fluoro-2-phenyl-2,5-dihydro-pyrazolo[4,3-c]quinolin-3-one], < 1 µM.
The same measure, in the same setting: then `CC1CN(c2ccc3[nH]cc4c(=O)n(-c5ccccc5)nc-4c3c2)CC(C)O1` (stereo not drawn) [19h, 8-(2,6-Dimethylmorpholin-4-yl)-2-phenyl-2,5-dihydro-pyrazolo[4,3-c]quinolin-3-one], with < 1 µM; and `Cc1[nH]c2cc(N3CCNCC3)c(F)cc2c2nn(-c3ccccc3)c(=O)c1-2` [63a, 8-Fluoro-4-methyl-2-phenyl-7-piperazin-1-yl-2,5-dihydro-pyrazolo[4,3-c]quinolin-3-one], with > 1 µM.
The same measure, in the same setting: then `O=c1c2c[nH]c3cc(N4CCN(C5CCCC5)CC4)c(F)cc3c-2nn1-c1ccccc1` [28j, 7-(4-Cyclopentylpiperazin-1-yl)-8-fluoro-2-phenyl-2,5-dihydro-pyrazolo[4,3-c]quinolin-3-one], with < 1 µM.
Consider `O=c1c2c[nH]c3cc(N4CCC(O)CC4)c(F)cc3c-2nn1-c1ccccc1` [28k, 8-Fluoro-7-(4-hydroxypiperidin-1-yl)-2-phenyl-2,5-dihydro-pyrazolo[4,3-c]quinolin-3-one], for which the IC50 is < 1 µM.
On the same count and under the same terms, to `CC(C)N1CCN(c2ccc3c4nn(-c5ccccn5)c(=O)c-4c[nH]c3c2F)CC1` [48f, 6-Fluoro-7-(4-iso-propylpiperazin-1-yl)-2-(2′-pyridyl)-2,5-dihydro-pyrazolo[4,3-c]quinolin-3-one] belongs < 1 µM; to `CC(C)N1CCN(c2ccc3c4nn(-c5ccccc5)c(=O)c-4c[nH]c3c2F)CC1` [48e, 6-Fluoro-7-(4-iso-propylpiperazin-1-yl)-2-phenyl-2,5-dihydro-pyrazolo [4,3-c]quinolin-3-one], < 1 µM; to `O=c1c2c[nH]c3cc(N4CCOCC4)c(F)c(N4CCOCC4)c3c-2nn1-c1ccccc1` [compound 55, 7,9-Bis(morpholin-4-yl)-8-fluoro-2-phenyl-2,5-dihydro-pyrazolo[4,3-c]quinolin-3-one], < 1 µM.
Regarding `O=c1c2c[nH]c3cc(N4CCNCC4)c(F)cc3c-2nn1-c1ccccc1` [28a, 8-Fluoro-2-phenyl-7-piperazin-1-yl-2,5-dihydro-pyrazolo[4,3-c]quinolin-3-one], the IC50 was < 1 µM.
On the same count and under the same terms, to `Cc1[nH]c2cc(N3CCOCC3)c(F)cc2c2nn(-c3ccccc3)c(=O)c1-2` [63b, 8-Fluoro-4-methyl-7-morpholin-4-yl-2-phenyl-2,5-dihydro-pyrazolo [4,3-c]quinolin-3-one] belongs > 1 µM; to `O=c1c2c[nH]c3c(F)c(N4CCNCC4)ccc3c-2nn1-c1ccccc1` [48a, 6-Fluoro-2-phenyl-7-piperazin-1-yl-2,5-dihydro-pyrazolo[4,3-c]quinolin-3-one], > 1 µM; to `O=c1c2c[nH]c3cc(N4CCNCC4)c(F)cc3c-2nn1-c1ccccc1F` [28n, 8-Fluoro-2-(2-fluorophenyl)-7-(piperazin-1-yl)-2,5-dihydro-pyrazolo[4,3-c]quinolin-3-one], > 1 µM.
Still for that read-out and setting: then `O=c1c2c[nH]c3c(F)c(N4CCCNCC4)ccc3c-2nn1-c1ccccc1` [48d, 6-Fluoro-7-(perhydro[1,4]-diazepine-1-yl)-2-phenyl-2,5-dihydro-pyrazolo[4,3-c]quinolin-3-one], with < 1 µM.

Source of the values: US8598159B2, “Therapeutic pyrazoloquinoline derivatives” (Dart Neuroscience (Cayman) Ltd., priority 2007, dated 2013).
